Experimental data: patent publication US6805816B1, “Method of producing π-conjugated polymers” (Bayer Aktiengesellschaft, priority 1999, dated 2004)
In brackets after ≈: the same amount, converted by molar mass.

Columns and labels:
[1] = physchem
Text: The cyclodextrin employed was in each case 2,6-dimethyl-β-cyclodextrin.

[2] = Stability: discoloration in air; settings: Monomer alone; in air after only a few hours

SMILES | increase of water solubility [1] | solubility ([1]; 20 °C, water) [µg/mL] | Stability [2]
c1scc2c1OCCO2 [EDT, 3,4-ethylenedioxythiophene] | more than 30 fold | 2100 (≈ 14.8 mM) | 
c1cc[nH]c1 [Pyrrole, pyrrole] |  |  | Pyrrole: discoloration
